From PubChem BioAssay AID274 (DTP/NCI, 2004)
Where “and” joins values, the source holds several entries; their conditions need not be identical. Equal values may be shown once. Inconclusive results and toxic doses are left out.

System: BDF1 mice, Lewis lung carcinoma iv, survival T/C
Assay: NCI In Vivo Anticancer Drug Screen. Data for tumor model Lewis Lung Carcinoma (intravenous) in B6D2F1 (BDF1) mice
Conditions: endpoint: median survival time, higher = longer survival
Description: The antitumor activity of compounds was measured in mice bearing transplantable tumors. Survival or tumor size were measured and the results are expressed as the measurement made in the treated group (T) divided by the measurement made in the vehicle treated control group (C). The tumor model used in this assay is Lewis Lung Carcinoma (intravenous) in B6D2F1 (BDF1) mice

[1] = dose: 1.0 mg/kg/injection, schedule: Q01DX009 (ip), vehicle: saline
[2] = dose: 2.0 mg/kg/injection, schedule: Q01DX009 (ip), vehicle: saline
[3] = dose: 4.0 mg/kg/injection, schedule: Q01DX009 (ip), vehicle: saline
[4] = dose: 12.5 mg/kg/injection, schedule: Q01DX009 (ip), vehicle: saline with Tween-80
[5] = dose: 25.0 mg/kg/injection, schedule: Q01DX009 (ip), vehicle: saline with Tween-80
[6] = dose: 50.0 mg/kg/injection, schedule: Q01DX009 (ip), vehicle: saline with Tween-80
[7] = dose: 100.0 mg/kg/injection, schedule: Q01DX009 (ip), vehicle: saline with Tween-80
[8] = dose: 200.0 mg/kg/injection, schedule: Q01DX009 (ip), vehicle: saline with Tween-80
[9] = dose: 400.0 mg/kg/injection, schedule: Q01DX009 (ip), vehicle: saline with Tween-80
[10] = dose: 6.25 mg/kg/injection, schedule: Q01DX009 (ip), vehicle: saline
[11] = dose: 12.5 mg/kg/injection, schedule: Q01DX009 (ip), vehicle: saline
[12] = dose: 50.0 mg/kg/injection, schedule: Q01DX009 (ip), vehicle: saline
[13] = dose: 8.0 mg/kg/injection, schedule: Q01DX009 (ip), vehicle: saline
[14] = dose: 16.0 mg/kg/injection, schedule: Q01DX009 (ip), vehicle: saline
[15] = dose: 32.0 mg/kg/injection, schedule: Q01DX009 (ip), vehicle: saline

N[C@H](C(=O)O)[C@@H]1CC(Cl)=NO1
T/C (dose: 0.5 mg/kg/injection, schedule: Q01DX009 (ip), vehicle: saline): 124 % of control | T/C [1]: 103 % of control | T/C [2]: 111 % of control | T/C [3]: 115 % of control

[O-][n+]1c(CN2CCCCC2)nc2cccc3c2c1-c1ccccc1-3
T/C [4]: 98 % of control and 100 % of control | T/C [5]: 98 % of control and 123 % of control | T/C [6]: 105 % of control and 106 % of control | T/C [7]: 111 % of control and 116 % of control | T/C [8]: 102 % of control and 118 % of control | T/C [9]: 111 % of control

C=CC(C)NC(=S)NNC(=S)NC (stereo not drawn)
T/C (dose: 25.0 mg/kg/injection, schedule: Q01DX009 (ip), vehicle: saline + alcohol): 119 % of control | T/C (dose: 50.0 mg/kg/injection, schedule: Q01DX009 (ip), vehicle: saline + alcohol): 110 % of control | T/C (dose: 100.0 mg/kg/injection, schedule: Q01DX009 (ip), vehicle: saline + alcohol): 107 % of control | T/C (dose: 200.0 mg/kg/injection, schedule: Q01DX009 (ip), vehicle: saline + alcohol): 104 % of control | T/C (dose: 400.0 mg/kg/injection, schedule: Q01DX009 (ip), vehicle: saline + alcohol): 114 % of control

Nc1ncn(C2OC(CO)C(O)C2O)c(=O)n1 (stereo not drawn)
T/C (dose: 0.37 mg/kg/injection, schedule: Q01DX009 (ip), vehicle: saline): 100 % of control | T/C (dose: 0.75 mg/kg/injection, schedule: Q01DX009 (ip), vehicle: saline): 113 % of control and 119 % of control | T/C (dose: 1.5 mg/kg/injection, schedule: Q01DX009 (ip), vehicle: saline): 109 % of control and 115 % of control | T/C (dose: 12.5 mg/kg/injection, schedule: Q01DX009 (ip), vehicle: suspension in saline): 115 % of control | T/C (dose: 25.0 mg/kg/injection, schedule: Q01DX009 (ip), vehicle: suspension in saline): 124 % of control | T/C (dose: 400.0 mg/kg/injection, schedule: Q01DX009 (ip), vehicle: suspension in saline): 175 % of control

OCCN1CCN(CC/C=C2/c3ccccc3Sc3ccc(Cl)cc32)CC1
T/C (dose: 0.78 mg/kg/injection, schedule: Q01DX009 (ip), vehicle: saline): 102 % of control | T/C (dose: 1.56 mg/kg/injection, schedule: Q01DX009 (ip), vehicle: saline): 111 % of control | T/C (dose: 3.12 mg/kg/injection, schedule: Q01DX009 (ip), vehicle: saline): 98 % of control | T/C [10]: 101 % of control | T/C [11]: 100 % of control

CC1CN1C(=O)NCCCCCCNC(=O)N1CC1C (stereo not drawn)
T/C (dose: 2.5 mg/kg/injection, schedule: Q01DX009 (ip), vehicle: saline + alcohol): 111 % of control

Clc1ccc2c(Cl)ncnc2c1
T/C [6]: 107 % of control | T/C [7]: 118 % of control | T/C [8]: 111 % of control

C=C1C(=O)OCC2C(C(=O)O)=CC3C(C)C(C)=CC123 (stereo not drawn)
T/C (dose: 2.5 mg/kg/injection, schedule: Q01DX009 (ip), vehicle: Klucel (hydroxypropylcellulose) (HPC)): 87 % of control | T/C (dose: 5.0 mg/kg/injection, schedule: Q01DX009 (ip), vehicle: Klucel (hydroxypropylcellulose) (HPC)): 92 % of control | T/C (dose: 10.0 mg/kg/injection, schedule: Q01DX009 (ip), vehicle: Klucel (hydroxypropylcellulose) (HPC)): 95 % of control | T/C (dose: 40.0 mg/kg/injection, schedule: Q01DX009 (ip), vehicle: Klucel (hydroxypropylcellulose) (HPC)): 91 % of control | T/C (dose: 80.0 mg/kg/injection, schedule: Q01DX009 (ip), vehicle: Klucel (hydroxypropylcellulose) (HPC)): 92 % of control

O=C1N(Cl)C(=O)C(c2ccc(Cl)cc2)(c2ccc(Cl)cc2)N1Cl
T/C [4]: 101 % of control | T/C [5]: 96 % of control | T/C [6]: 103 % of control | T/C [7]: 101 % of control | T/C [8]: 103 % of control | T/C [9]: 113 % of control

COc1ccc2nonc2c1
T/C [5]: 191 % of control | T/C [6]: 109 % of control | T/C [7]: 101 % of control | T/C [8]: 103 % of control

CC[C@]1(O)C[C@H]2CN(CCc3c([nH]c4ccccc34)[C@@](C(=O)OC)(c3cc4c(cc3OC)N(C=O)[C@H]3[C@@](O)(C(=O)OC)[C@H](OC(C)=O)[C@]5(CC)C=CCN6CC[C@]43[C@@H]65)C2)C1
T/C (dose: 0.36 mg/kg/injection, schedule: Q04DX003 (ip), vehicle: saline): 98 % of control | T/C (dose: 0.6 mg/kg/injection, schedule: Q04DX003 (ip), vehicle: saline): 105 % of control | T/C (dose: 1.0 mg/kg/injection, schedule: Q04DX003 (ip), vehicle: saline): 120 % of control | T/C (dose: 130.0 micrograms/kg/injection, schedule: Q01DX009 (ip), vehicle: saline): 106 % of control | T/C (dose: 216.0 micrograms/kg/injection, schedule: Q01DX009 (ip), vehicle: saline): 111 % of control

O=C(O)CP(=O)(O)O
T/C [12]: 96 % of control | T/C (dose: 100.0 mg/kg/injection, schedule: Q01DX009 (ip), vehicle: saline): 96 % of control | T/C (dose: 200.0 mg/kg/injection, schedule: Q01DX009 (ip), vehicle: saline): 152 % of control

[Cl][Mn][Cl]
T/C [1]: 109 % of control | T/C [2]: 99 % of control | T/C [3]: 105 % of control and 90 % of control | T/C [13]: 101 % of control and 121 % of control | T/C [14]: 91 % of control and 101 % of control | T/C [15]: 94 % of control and 98 % of control | T/C (dose: 64.0 mg/kg/injection, schedule: Q01DX009 (ip), vehicle: saline): 96 % of control and 108 % of control

COc1cc2cc3cc4cc(OC)c(OC)cc4c(C)[n+]3cc2cc1OC (tested in a mixture with another compound)
T/C [10]: 104 % of control | T/C [11]: 106 % of control | T/C (dose: 25.0 mg/kg/injection, schedule: Q01DX009 (ip), vehicle: saline): 107 % of control | T/C [12]: 111 % of control

OC1CCCC2CCCNC12 (stereo not drawn)
T/C (dose: 3.12 mg/kg/injection, schedule: Q01DX009 (ip), vehicle: saline with Tween-80): 104 % of control | T/C (dose: 6.25 mg/kg/injection, schedule: Q01DX009 (ip), vehicle: saline with Tween-80): 100 % of control | T/C [4]: 152 % of control | T/C [5]: 96 % of control | T/C [6]: 99 % of control | T/C [7]: 95 % of control

CC1=CC(=NN=c2cc(C)n([O-])c(C)c2)C=C(C)[N+]1=O
T/C [4]: 102 % of control | T/C [5]: 100 % of control | T/C [6]: 104 % of control | T/C [7]: 105 % of control | T/C [8]: 86 % of control

O=C1c2ccccc2C(=O)c2c(NCCNCCO)ccc(O)c21
T/C (dose: 2.5 mg/kg/injection, schedule: Q01DX009 (ip), vehicle: suspension in saline): 92 % of control | T/C (dose: 5.0 mg/kg/injection, schedule: Q01DX009 (ip), vehicle: suspension in saline): 88 % of control | T/C (dose: 10.0 mg/kg/injection, schedule: Q01DX009 (ip), vehicle: suspension in saline): 88 % of control | T/C (dose: 20.0 mg/kg/injection, schedule: Q01DX009 (ip), vehicle: suspension in saline): 97 % of control | T/C (dose: 40.0 mg/kg/injection, schedule: Q01DX009 (ip), vehicle: suspension in saline): 103 % of control | T/C (dose: 80.0 mg/kg/injection, schedule: Q01DX009 (ip), vehicle: suspension in saline): 102 % of control

O=c1[nH]cc(F)c(=O)[nH]1
T/C [2]: 106 % of control | T/C (dose: 2.5 mg/kg/injection, schedule: Q01DX009 (ip), vehicle: saline): 108 % of control | T/C [3]: 110 % of control | T/C (dose: 5.0 mg/kg/injection, schedule: Q01DX009 (ip), vehicle: saline): 116 % of control | T/C (dose: 7.5 mg/kg/injection, schedule: Q04DX003 (ip), vehicle: saline): 96 % of control (2×) and 110 % of control | T/C [13]: 112 % of control | T/C (dose: 9.8 mg/kg/injection, schedule: Q01DX009 (ip), vehicle: saline): 122 % of control | T/C (dose: 10.0 mg/kg/injection, schedule: Q01DX009 (ip), vehicle: saline): 104 % of control and 109 % of control and 122 % of control | T/C (dose: 13.2 mg/kg/injection, schedule: Q04DX006 (ip), vehicle: saline): 104 % of control | T/C (dose: 14.0 mg/kg/injection, schedule: Q01DX009 (ip), vehicle: saline): 163 % of control | T/C (dose: 14.0 mg/kg/injection, schedule: Q01DX022 (ip), vehicle: saline): 193 % of control | T/C (dose: 15.0 mg/kg/injection, schedule: Q04DX003 (ip), vehicle: saline): 105 % of control and 110 % of control (2×) | T/C [14]: 107 % of control | T/C (dose: 28.6 mg/kg/injection, schedule: Q01DX009 (ip), vehicle: saline): 109 % of control | T/C [15]: 122 % of control | T/C (dose: 40.9 mg/kg/injection, schedule: Q01DX009 (ip), vehicle: saline): 109 % of control | T/C (dose: 60.0 mg/kg/injection, schedule: Q04DX003 (ip), vehicle: saline): 150 % of control
